Reference: US20250296948A1, “SYNTHESIS OF NUCLEOSIDE DERIVATIVES” (Nucana plc, priority 2022, published 2025)

Columns and labels:
[1] = 6 month dry powder stability, HPLC assay; format: physicochemical
Excerpt: (§1) NUC-3373 prepared according to Example 3 and Comparative Example 4 was packed into a transparent LDPE bag which was then filled with nitrogen and tied with a strip seal. This bag was then placed into another transparent LDPE bag which was also filled with nitrogen. A silica gel packet was placed between the two bags before the outermost bag was tied with a strip seal. These bags were then placed in a triple laminated sun light barrier bag which was sealed with a heat sealer. The bags were kept in a HDPE container.
(§2) NUC-3373 was initially assayed by HPLC after manufacture (0 months) then after 1 and 2 and/or 3 and 6 months of storage at 2-8° C., 25° C. or 40° C.

[2] = 6 month dry powder stability, Alpha Naphthol content by HPLC; format: physicochemical
Excerpt: as §1, §2
The Alpha Naphthol content of the same batches was also determined by HPLC. The levels of the alpha naphthol impurity is a key indicator of stability of the tested material.

In the case of C[C@H](NP(=O)(OC[C@H]1O[C@@H](n2cc(F)c(=O)[nH]c2=O)CC1O)Oc1cccc2ccccc12)C(=O)OCc1ccccc1 (stereo partly drawn) [Example 3, Batch 3, 5-fluoro-2′-deoxyuridine-5′-O-[1-naphthyl (benzoxy-L-alaninyl)] phosphate], the “Decrease after 6 months, HPLC assay” value ([1]; 2-8 ° C.) is reported as “None”, the “HPLC assay (% w/w on anhydrous and solvent free basis)” value ([1]; 2-8 ° C., 0 months) is reported as 100.3 % w/w and the “HPLC assay (% w/w on anhydrous and solvent free basis)” value ([1]; 2-8 ° C., 3 months) is reported as 101.9 % w/w. The “HPLC assay (% w/w on anhydrous and solvent free basis)” value ([1]; 2-8 ° C., 6 months) was 100.5 % w/w, the “Decrease after 6 months, HPLC assay” value ([1]; 25 ° C.) was “None” and the “HPLC assay (% w/w on anhydrous and solvent free basis)” value ([1]; 25 ° C., 0 months) was 100.3 % w/w. The “HPLC assay (% w/w on anhydrous and solvent free basis)” value ([1]; 25 ° C., 3 months) was 101.8 % w/w, the “HPLC assay (% w/w on anhydrous and solvent free basis)” value ([1]; 25 ° C., 6 months) was 101.0 % w/w and the “Decrease after 6 months, HPLC assay” value ([1]; 40 ° C.) was “None”. For the same compound, the “HPLC assay (% w/w on anhydrous and solvent free basis)” value ([1]; 40 ° C., 0 months) was 100.3 % w/w, the “HPLC assay (% w/w on anhydrous and solvent free basis)” value ([1]; 40 ° C., 1 month) was 100.6 % w/w and the “HPLC assay (% w/w on anhydrous and solvent free basis)” value ([1]; 40 ° C., 2 months) was 101.5 % w/w. For the same compound, the “HPLC assay (% w/w on anhydrous and solvent free basis)” value ([1]; 40 ° C., 3 months) was 102.2 % w/w, the “HPLC assay (% w/w on anhydrous and solvent free basis)” value ([1]; 40 ° C., 6 months) was 100.8 % w/w and the “Increase after 6 months, Alpha Naphthol by HPLC” value (shortened to “Increase after 6 months”) ([2]; 2-8 ° C.) was “None”. The “Alpha Naphthol by HPLC (% w/w)” value ([2]; 2-8 ° C., 0 months) was 0.18 % w/w, the “Alpha Naphthol by HPLC (% w/w)” value ([2]; 2-8 ° C., 3 months) was 0.18 % w/w and the “Alpha Naphthol by HPLC (% w/w)” value ([2]; 2-8 ° C., 6 months) was 0.17 % w/w. For the same compound, the “Increase after 6 months” value ([2]; 25 ° C.) was “None”, the “Alpha Naphthol by HPLC (% w/w)” value ([2]; 25 ° C., 0 months) was 0.18 % w/w and the “Alpha Naphthol by HPLC (% w/w)” value ([2]; 25 ° C., 3 months) was 0.18 % w/w. The “Alpha Naphthol by HPLC (% w/w)” value ([2]; 25 ° C., 6 months) was 0.17 % w/w, the “Increase after 6 months” value ([2]; 40 ° C.) was “None” and the “Alpha Naphthol by HPLC (% w/w)” value ([2]; 40 ° C., 0 months) was 0.18 % w/w. For the same compound, the “Alpha Naphthol by HPLC (% w/w)” value ([2]; 40 ° C., 1 month) was 0.17 % w/w, the “Alpha Naphthol by HPLC (% w/w)” value ([2]; 40 ° C., 2 months) was 0.17 % w/w and the “Alpha Naphthol by HPLC (% w/w)” value ([2]; 40 ° C., 3 months) was 0.17 % w/w. For the same compound, the “Alpha Naphthol by HPLC (% w/w)” value ([2]; 40 ° C., 6 months) was 0.15 % w/w.
